According to US11654138B2, “Therapeutic agents for treating and preventing autoimmune diseases and cancer and a screening method” (KING FAISAL UNIVERSITY, priority 2019, dated 2023):

What was measured:
IMQ-induced psoriasis = IMQ-induced psoriasis model; format: in vivo, male BALB/c mice; conditions: for Clinical scores (erythema and thickness of the right ear): topical ointment 40 mg/cm^2 day 0 to 8, vs Vaseline, FIG. 8A; for Il6 mRNA expression in whole biopsies of the right ear / Il17a mRNA expression in whole biopsies of the right ear: topical ointment, day 8, FIG. 8B
Procedure: Experimental psoriasis was induced following a modified method described previously (Sun et al. 2013). To induce disease in male BALB/c mice (6-8 weeks; n=6), imiquimod (IMG; Sichuan Med-Shine Pharmaceutical) at 5% was applied topically at 20 mg/cm^2 on the inside of the right ear for 8 consecutive days. An evaluation system for assessment of erythema and thickness of the ear was developed. Erythema was assessed using a table with red […] (0-4) and ear thickness (0-4) measured using a digital caliber on days 2, 4, 6, and 8 after first IMQ application. The sum of the two parameters scores (ranging from 0-8) was used to indicate the overall clinical score. Treatment ointment was prepared by mixing 1 mg of DMSO-dissolved POE or its representative analogs including POE A2 or POE A3 with 20 gm of Vaseline Petroleum Jelly Original (vehicle, Unilever Inc.); the mixture was then incubated at room temperature overnight. From day 0 to day 8 the mice were treated topically with the treatment ointment (40 mg/cm^2) or Vaseline (IMQ/control). The mRNAs encoding Il6 and Il17a were isolated from whole biopsies of the ear (day 8) and reverse transcribed to make cDNA. The cDNA was then amplified by real-time PCR using TaqMan Gene Expression Assays (Mm00446190_ml, Mm00439618_ml, respectively; Applied Biosystems). The relative expression of mRNAs was calculated by the ΔΔCt method and presented relative to that of IMQ control mice.

CIA = test: Collagen-induced arthritis (CIA) model; format: in vivo, C57BL mice; conditions: for CIA clinical scores: 0.25 mg i.p. on days 0, 3, 6, 9, 12, 15, 18, vs corn oil, FIG. 7A; for Serum level of IL-6 / Frequency of CD4+IL-17+ cells in the secondary lymphoid organs: 0.25 mg i.p.; for Serum level of IL-6: day 45, FIG. 7B; for Frequency of CD4+IL-17+ cells in the secondary lymphoid organs: day 45, flow cytometry, FIG. 7C

Compound	Clinical scores (erythema and thickness of the right ear) (IMQ-induced psoriasis)	Il6 mRNA expression in whole biopsies of the right ear (IMQ-induced psoriasis)	Il17a mRNA expression in whole biopsies of the right ear (IMQ-induced psoriasis)	CIA clinical scores (CIA)	Serum level of IL-6 (CIA)	Frequency of CD4+IL-17+ cells in the secondary lymphoid organs (CIA)
CC(=O)CSc1nnc(-c2cccnc2)o1 [POE A3, 2-Propanone, 1-[[5-(3-pyridinyl)-1,3,4-oxadiazol-2-yl]thio]-]	comparably reduced clinical scores	suppressed mRNA expression	suppressed mRNA expression			
Cc1nnc(NCC(=O)c2ccccc2)s1 [POE A2, 2-[(5-methyl-1,3,4-thiadiazol-2-yl)amino]-1-phenylethan-1-one]	comparably reduced clinical scores	suppressed mRNA expression	suppressed mRNA expression	comparably reduced CIA clinical scores	reduced serum levels of IL-6	reduced the frequency of CD4^+IL-17^+ cells
Cc1nnc(SCC(=O)c2ccccc2)o1 [POE A1]				comparably reduced CIA clinical scores	reduced serum levels of IL-6	reduced the frequency of CD4^+IL-17^+ cells
